From patent publication US10730848B2 (priority 2013, dated 2020)
“Also recorded” adds a separate entry of the source. Read-outs that look alike come from different tables or passages of the source.

How the values were obtained:
[1] = system: anthrax lethal toxin (LT); experiment: cells; type: cell-based, murine; conditions: for IC50: Mus musculus
[2] = system: anthrax lethal toxin (LT); type: cell-based, mice
[3] = system: MEK2; type: cell-based, murine
[4] = system: PA+LFnDTA; type: cell-based
[5] = system: caspase-1; type: cell-based, mice
[6] = system: PA; type: cell-based
[7] = system: Diphtheria toxin; type: cell-based
[8] = system: exotoxin A from Pseudomonas aeruginosa (ExoA); type: cell-based
[9] = system: VSV-pseudotyped lentivirus; type: cell-based
[10] = system: Nipah-pseudotyped lentivirus; type: cell-based
[11] = system: GFP-expressing Armstrong variant of LCMV; type: cell-based
[12] = system: influenza A/WSN/33 virus; type: cell-based
[13] = system: acidic compartments; type: cell-based
[14] = system: EGFR; type: cell-based
[15] = system: EGF; type: cell-based
[16] = system: transferrin (Tf); type: cell-based
[17] = system: THP-1 cells; type: cell-based, human
[18] = system: F. tularensis LVS; type: cell-based
[19] = system: HdCDT
[20] = system: EcCDT
[21] = system: LT; conditions: rat, in vivo
[22] = system: anthrax lethal toxin (LT); type: cell-based
[23] = system: LT; conditions: read-out: IC50 of previously reported toxin entry inhibitors; cited from earlier work
[24] = RAW264.7, read-out: IC50 (In uM)
[25] = RAW264.7, read-out: IC50, inhibition of LT-induced cell death

Cc1cccc(C)c1NC(=O)N/N=C/c1ccc(Br)cc1 [Compound 1, N^1-(4-BROMOBENZYLIDENE)-N^4-(2,6-DIMETHYLPHENYL)SEMICARBAZONE]
rescued viability, of unintoxicated controls [1]: up to 100% | time after LT at which addition still completely protects cells from killing [1]: up to 15 minutes | IC50 ([1]; RAW264.7): 1.4 µM | IC50 [1, 24]: 1.27 µM | IC50 [1, 25]: 1.4 µM | IC50 ([1]; RAW264.7, read-out: IC50 in cell-based LT intoxication experiments): 1.4 µM | protection of BMDMs from killing by LT [2]: protected | LT-mediated cleavage of MEK2 [3]: inhibits LT-mediated cleavage of MEK-2; also recorded: completely abrogated | protection from PA+LFnDTA [4]: Protects Cells from PA+LFnDTA; also recorded: resistant | LT-mediated caspase-1 activation [5]: inhibits LT-mediated caspase-1 activation; also recorded: active caspase-1 was not detected | binding of PA83 to cells or proteolytic processing to PA63 [6]: did not block | protection of HeLa cells from DT [7]: effectively protected | protection of HeLa cells from ExoA [8]: effectively protected | infection by VSV-G pseudotyped virus [9]: Inhibits Infection by Low pH-dependent VSV-pseudotyped lentivirus; also recorded: effectively inhibited; also recorded: neutralized | infection by Nipah-pseudotyped lentivirus [10]: Does Not Inhibit Infection; also recorded: did not inhibit | acute LCMV infection [11]: Reduces Acute LCMV Infection; also recorded: decreased the total number of cells infected and the amount of virus being produced | influenza virus infection (reporter activation) [12]: Inhibits Entry of Influenza virus; also recorded: completely inhibited infection; also recorded: partial protection | cell-associated Lysotracker Red fluorescence (neutralization of acidic compartments) [13]: Does Not Neutralize Acidic Compartments; also recorded: did not reduce | EGFR degradation at early times post EGF stimulation ([14]; 15-30 min): Slows EGFR-Degradation at 15 Minutes; also recorded: significantly less EGFR degraded at 30 min | EGF retention in EEA1-positive endosomes [15]: Results in EGF Retention in EEA1+ Endosomes; also recorded: retained in enlarged endosomes | stabilization of EGF [15]: stabilized EGF up to 60 min | transferrin recycling to the cell surface [16]: Does Not Inhibit Transferrin Receptor Recycling to the Plasma Membrane; also recorded: had no affect | trafficking of Texas-red dextran to phagosomes [17]: Does Not Block Texas Red-Dextran Trafficking to Phagosomes; also recorded: Neither EGA nor bafilomycin A1 inhibited | phagocytic uptake of F. tularensis LVS [18]: Does Not Block Phagocytic Uptake of F. tularensis; also recorded: Neither EGA nor bafilomycin A1 blocked | HdCDT localization in EEA-1-positive vesicles [19]: Traps HdCDT in Enlarged EEA-1-Positive Vesicles | cytotoxicity induced by Hd-CDT [19]: Inhibits cytotoxicity induced by Hd-CDT | intoxication (cell cycle arrest) by EcCDT [20]: did not inhibit intoxication | tolerability [21]: well tolerated in rats

Cc1cccc(C)c1NC(=O)N/N=C/c1ccc(N=[N+]=[N-])cc1F [Compound 3, N^1-(4-AZIDO-2-FLUOROBENZYLIDENE)-N^4-(2,6-DIMETHYLPHENYL)SEMICARBAZONE]
IC50 [1, 25]: 2.2 µM | protection against LT after UV irradiation and washout (media exchange) [22]: did not provide protection; also recorded: did not offer statistically significant protection

Cc1cccc(C)c1NC(=O)N/N=C/c1ccc(N=[N+]=[N-])cc1 [Compound 4, N^1-(4-AZIDOBENZYLIDENE)-N^4-(2,6-DIMETHYLPHENYL)SEMICARBAZONE]
IC50 ([1]; RAW264.7): 2.8 µM | IC50 [1, 24]: 2.82 µM | IC50 [1, 25]: ~3 µM | protection against LT after UV irradiation and washout (media exchange) [22]: retained viability; also recorded: statistically significant protection; also recorded: conferred irreversible resistance to LT

Cc1cccc(C)c1NC(=O)N/N=C/c1c(F)c(F)c(N=[N+]=[N-])c(F)c1F [Compound 5, N^1-(4-AZIDO-2,3,5,6-TETRAFLUOROBENZYLIDENE)-N^4-(2,6-DIMETHYLPHENYL)SEMICARBAZONE]
protection of cells from LT (in words) [1]: poor inhibitor; also recorded: only weakly protective | protection against LT after UV irradiation and washout (media exchange) [22]: statistically significant protection; also recorded: most effective irreversible protection; also recorded: conferred irreversible resistance to LT

C#CCN(/N=C/c1ccc(N=[N+]=[N-])cc1)C(=O)Nc1c(C)cccc1C [Compound 28, 2-(4-Azidobenzylidene)-N-(2,6-dimethylphenyl)-1-(prop-2-yn-1-yl)hydrazinecarboxamide]
protection of cells from LT (in words) [1]: did not offer any protection | IC50 ([1]; RAW264.7): > 25 µM

Cl.N [ammonium chloride, reference compound]
cell-associated Lysotracker Red fluorescence (neutralization of acidic compartments) [13]: markedly decreased | EGFR stabilization at 60 minutes [14]: inhibit EGF-induced receptor degradation | IC50 [23]: 5000 µM

CCN(CC)CCCC(C)Nc1ccnc2cc(Cl)ccc12 (stereo not drawn) [chloroquine]
IC50 [23]: 100 µM

CCOC(=O)C1=C[C@@H](OC(CC)CC)[C@H](NC(C)=O)[C@@H](N)C1 [oseltamivir, reference compound]
influenza virus infection (reporter activation) [12]: exhibited no protection

CCN(CC)CCCC(C)Nc1c2ccc(Cl)cc2nc2ccc(OC)cc12 (stereo not drawn) [quinacrine]
IC50 [23]: 40 µM

NC(=O)c1ncn([C@@H]2O[C@H](CO)[C@@H](O)[C@H]2O)n1 [ribavirin, reference compound]
influenza virus infection (reporter activation) [12]: effectively blocked reporter activation

bafilomycin A1 [reference compound]
cell-associated Lysotracker Red fluorescence (neutralization of acidic compartments) [13]: markedly decreased | trafficking of Texas-red dextran to phagosomes [17]: Neither EGA nor bafilomycin A1 inhibited | phagocytic uptake of F. tularensis LVS [18]: Neither EGA nor bafilomycin A1 blocked
